Assay results reported in patent US10369138B2, “Monobactam organic compounds for the treatment of bacterial infections” (Novartis AG, priority 2014, dated 2019).
≈ marks a conversion by molar mass, not a printed value.

Columns and labels:
E. coli strain 25922 = experiment: MIC by broth microdilution, E. coli strain 25922; format: cell-based; details: Escherichia coli, 25922, E. coli strain 25922; read-out: Ec 25922 (MIC)
Procedure, shortened: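 CLSI broth microdilution in cation-adjusted Mueller-Hinton broth, inoculum about 5×10^5 CFU/mL, 10% DMSO from the diluted series, 20 h at 35-37° C. MIC is the lowest concentration preventing visible growth, read by eye and at 600 nm.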

E. coli containing KPC-2 = experiment: MIC by broth microdilution, E. coli containing KPC-2 (Ec KPC2 Iso); format: cell-based; details: Escherichia coli, read-out: Ec KPC2 Iso (MIC), E. coli containing KPC-2 (carbapenemase from Klebsiella pneumoniae)
Procedure, shortened: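 Host E. coli BW25113 pspB carrying multicopy pBAD18-kan plasmid with constitutive TEM-promoter KPC-2 expression (periplasmic signal sequence); broth microdilution per CLSI in cation-adjusted Mueller-Hinton broth, inoculum ~5×10^5 CFU/mL, compounds twofold serially diluted from DMSO masters (10% DMSO in dilution series added).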

Row | SMILES | MIC (E. coli strain 25922) [µg/mL] | MIC (E. coli containing KPC-2) [µg/mL]
1 | NCCCCNCc1cnn(C[C@@H]2[C@H](NC(=O)/C(=N\OC3(C(=O)O)CC3)c3csc(N)n3)C(=O)N2S(=O)(=O)O)n1 [Example 118, 1-(((Z)-(2-(((2R,3S)-2-((4-(((4-aminobutyl)amino)methyl)-2H-1,2,3-triazol-2-yl)methyl)-4-oxo-1-sulfoazetidin-3-yl)amino)-1-(2-aminothiazol-4-yl)-2-oxoethylidene)amino)oxy)cyclopropanecarboxylic acid] | 0.5 (≈ 0.832 µM) | 0.25 (≈ 0.416 µM)
2 | CC(C)(O/N=C(\C(=O)N[C@@H]1C(=O)N(S(=O)(=O)O)[C@@H]1Cn1cncn1)c1csc(N)n1)C(=O)O [Example 9, 2-(((Z)-(2-(((2R,3S)-2-((1H-1,2,4-triazol-1-yl)methyl)-4-oxo-1-sulfoazetidin-3-yl)amino)-1-(2-aminothiazol-4-yl)-2-oxoethylidene)amino)oxy)-2-methylpropanoic acid] | 1 (≈ 1.99 µM) | 1 (≈ 1.99 µM)
3 | CNCc1cnn(C[C@@H]2[C@H](NC(=O)/C(=N\OC(C)(C)C(=O)O)c3csc(N)n3)C(=O)N2S(=O)(=O)O)n1 [Example 100, 2-(((Z)-(1-(2-aminothiazol-4-yl)-2-(((2R,3S)-2-((4-((methylamino)methyl)-2H-1,2,3-triazol-2-yl)methyl)-4-oxo-1-sulfoazetidin-3-yl)amino)-2-oxoethylidene)amino)oxy)-2-methylpropanoic acid] | 1 (≈ 1.83 µM) | 4 (≈ 7.33 µM)
4 | CC(C)(O/N=C(\C(=O)N[C@@H]1C(=O)N(S(=O)(=O)O)[C@@H]1CN1CCN=C1N)c1csc(N)n1)C(=O)O [Example 39, 2-(((Z)-(2-(((2R,3S)-2-((2-amino-4,5-dihydro-1H-imidazol-1-yl)methyl)-4-oxo-1-sulfoazetidin-3-yl)amino)-1-(2-aminothiazol-4-yl)-2-oxoethylidene)amino)oxy)-2-methylpropanoic acid] | 64 (≈ 123 µM) | > 64
5 | N=C(N)NCCCNCc1cnn(C[C@@H]2[C@H](NC(=O)/C(=N\OC3(C(=O)O)CC3)c3csc(N)n3)C(=O)N2S(=O)(=O)O)n1 [Example 114, 1-(((Z)-(1-(2-aminothiazol-4-yl)-2-(((2R,3S)-2-((4-(((3-guanidinopropyl)amino)methyl)-2H-1,2,3-triazol-2-yl)methyl)-4-oxo-1-sulfoazetidin-3-yl)amino)-2-oxoethylidene)amino)oxy)cyclopropanecarboxylic acid] | 0.25 (≈ 0.398 µM) | ≤ 0.06
6 | N=C(NCCN)c1ccc(OC[C@H](O/N=C(\C(=O)N[C@@H]2C(=O)N(S(=O)(=O)O)[C@@H]2Cn2ncc(CN)n2)c2csc(N)n2)C(=O)O)cc1 [Example 66, (S)-3-(4-(N-(2-aminoethyl)carbamimidoyl)phenoxy)-2-(((Z)-(2-(((2R,3S)-2-((4-(aminomethyl)-2H-1,2,3-triazol-2-yl)methyl)-4-oxo-1-sulfoazetidin-3-yl)amino)-1-(2-aminothiazol-4-yl)-2-oxoethylidene)amino)oxy)propanoic acid] | 1 (≈ 1.44 µM) | 2 (≈ 2.88 µM)
7 | CC(C)(O/N=C(\C(=O)N[C@@H]1C(=O)N(S(=O)(=O)O)[C@@H]1Cn1cnc(C#N)n1)c1csc(N)n1)C(=O)O [Example 105, 2-(((Z)-(1-(2-aminothiazol-4-yl)-2-(((2R,3S)-2-((3-cyano-1H-1,2,4-triazol-1-yl)methyl)-4-oxo-1-sulfoazetidin-3-yl)amino)-2-oxoethylidene)amino)oxy)-2-methylpropanoic acid] | 16 (≈ 30.3 µM) | 32 (≈ 60.7 µM)
8 | CC(C)(O/N=C(\C(=O)N[C@@H]1C(=O)N(S(=O)(=O)O)[C@@H]1Cn1ncc(COC(N)=O)n1)c1csc(N)n1)C(=O)O [Example 37, 2-(((Z)-(1-(2-aminothiazol-4-yl)-2-(((2R,3S)-2-((4-((carbamoyloxy)methyl)-2H-1,2,3-triazol-2-yl)methyl)-4-oxo-1-sulfoazetidin-3-yl)amino)-2-oxoethylidene)amino)oxy)-2-methylpropanoic acid] | 2 (≈ 3.47 µM) | 2 (≈ 3.47 µM)
9 | Nc1nc(/C(=N/OC2(C(=O)O)CC2)C(=O)N[C@@H]2C(=O)N(S(=O)(=O)O)[C@@H]2Cn2ncc(CN[C@H]3CCNC3)n2)cs1 [Example 91, 1-(((Z)-(1-(2-aminothiazol-4-yl)-2-oxo-2-(((3S,4R)-2-oxo-4-((4-(((S)-pyrrolidin-3-ylamino)methyl)-2H-1,2,3-triazol-2-yl)methyl)-1-sulfoazetidin-3-yl)amino)ethylidene)amino)oxy)cyclopropanecarboxylic acid] | 0.125 (≈ 0.209 µM) | 0.25 (≈ 0.418 µM)
10 | Nc1nc(/C(=N/OCC(=O)O)C(=O)N[C@@H]2C(=O)N(S(=O)(=O)O)[C@@H]2Cn2cncn2)cs1 [Example 17, 2-(((Z)-(2-(((2R,3S)-2-((1H-1,2,4-triazol-1-yl)methyl)-4-oxo-1-sulfoazetidin-3-yl)amino)-1-(2-aminothiazol-4-yl)-2-oxoethylidene)amino)oxy)acetic acid] | 0.5 (≈ 1.05 µM) | 0.25 (≈ 0.527 µM)
11 | N=C(NCCOCCN)NCc1cnn(C[C@@H]2[C@H](NC(=O)/C(=N\OC3(C(=O)O)CC3)c3csc(N)n3)C(=O)N2S(=O)(=O)O)n1 [Example 147, 1-(((Z)-(2-(((2R,3S)-2-((4-((3-(2-(2-aminoethoxy)ethyl)guanidino)methyl)-2H-1,2,3-triazol-2-yl)methyl)-4-oxo-1-sulfoazetidin-3-yl)amino)-1-(2-aminothiazol-4-yl)-2-oxoethylidene)amino)oxy)cyclopropanecarboxylic acid] | 0.5 (≈ 0.759 µM) | 0.5 (≈ 0.759 µM)
12 | N=C(NCc1cnn(C[C@@H]2[C@H](NC(=O)/C(=N\OC3(C(=O)O)CC3)c3csc(N)n3)C(=O)N2S(=O)(=O)O)n1)N[C@H]1C[C@@H](N)C1 [Example 140, 1-(((Z)-(2-(((2R,3S)-2-((4-((3-((1 s,3S)-3-aminocyclobutyl)guanidino)methyl)-2H-1,2,3-triazol-2-yl)methyl)-4-oxo-1-sulfoazetidin-3-yl)amino)-1-(2-aminothiazol-4-yl)-2-oxoethylidene)amino)oxy)cyclopropanecarboxylic acid] | 0.25 (≈ 0.39 µM) | 0.25 (≈ 0.39 µM)
13 | N=C(N[C@H]1C[C@H](N)C1)c1ccc(OC[C@H](O/N=C(\C(=O)N[C@@H]2C(=O)N(S(=O)(=O)O)[C@@H]2Cn2cncn2)c2csc(N)n2)C(=O)O)cc1 [Example 77, (S)-2-(((Z)-(2-(((2R,3S)-2-((1H-1,2,4-triazol-1-yl)methyl)-4-oxo-1-sulfoazetidin-3-yl)amino)-1-(2-aminothiazol-4-yl)-2-oxoethylidene)amino)oxy)-3-(4-(N-((1r,3S)-3-aminocyclobutyl)carbamimidoyl)phenoxy)propanoic acid] | 0.25 (≈ 0.361 µM) | 0.125 (≈ 0.181 µM)
14 | N=CNC[C@@H]1CN(C[C@@H]2[C@H](NC(=O)/C(=N\OC3(C(=O)O)CC3)c3csc(N)n3)C(=O)N2S(=O)(=O)O)C(=O)O1 [Example 104, 1-(((Z)-(1-(2-aminothiazol-4-yl)-2-(((2R,3S)-2-(((R)-5-(formimidamidomethyl)-2-oxooxazolidin-3-yl)methyl)-4-oxo-1-sulfoazetidin-3-yl)amino)-2-oxoethylidene)amino)oxy)cyclopropanecarboxylic acid] | > 64 | > 64
15 | Nc1nc(/C(=N/OC2(C(=O)O)CC2)C(=O)N[C@@H]2C(=O)N(S(=O)(=O)O)[C@@H]2Cn2ncc(CN3CCC(N)CC3)n2)cs1 [Example 138, 1-(((Z)-(2-(((2R,3S)-2-((4-((4-aminopiperidin-1-yl)methyl)-2H-1,2,3-triazol-2-yl)methyl)-4-oxo-1-sulfoazetidin-3-yl)amino)-1-(2-aminothiazol-4-yl)-2-oxoethylidene)amino)oxy)cyclopropanecarboxylic acid] | 0.5 (≈ 0.816 µM) | 1 (≈ 1.63 µM)
